Literature values, collected in patent US5843713A, “Peptide sequence that forms mucin sugar chain and technique for modifying protein to be linked with mucin sugar chain” (Kirin Beer Kabushiki Kaisha, priority 1994, dated 1998).

tested on: O-GalNAc T derived from swine submaxillary gland; conditions: literature, Biochemistry Vol.18 (1979)

Substance | GalNAc acceptor activity
TPPP: literature peptide derived from bovine myelin basic protein (RTPPP) | highly active GalNAc acceptors
PRTPPP: literature peptide derived from bovine myelin basic protein | highly active GalNAc acceptors
TPRTPPP [literature peptide derived from bovine myelin basic protein] | highly active GalNAc acceptors

tested on: crude enzyme solution of O-GalNAc T extracted from human breast cancer cells MCF7; conditions: literature, J. Biol. Chem. Vol.269 (1994)

Substance | transfer of GalNAc
PDTRPPAGS [literature peptide analogous to repetitive region of human mucin MUC1] | no transfer of GalNAc is observed
PDTRAPPGS [literature peptide analogous to repetitive region of human mucin MUC1] | no transfer of GalNAc is observed
PDTRPAPGS [literature peptide analogous to repetitive region of human mucin MUC1] | no transfer of GalNAc is observed
